Measured values: ChEMBL document CHEMBL1201862, “PubChem BioAssay data set” (2004)
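Growth conditions: 96-well plates. Treatment: test compound, 48 hours, 5 concentrations. Analysis: linear interpolation between bracketing concentrations; unreached endpoints set to highest concentration. Here, GI50 denotes the concentration required for 50% inhibition of growth.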 Active and inactive are the calls of the source. Rule as the data show it: active = GI50 up to about 1.1 µM and inactive = higher.

What was measured:
Test in all cases: growth of human tumour cells (NCI), 48 h
NCI/ADR-RES = tested on: NCI/ADR-RES
Malme-3M = tested on: Malme-3M
K562 = tested on: K562
PC-3 = tested on: PC-3
T47D = tested on: T47D
EKVX = tested on: EKVX
A498 = tested on: A498
SF-268 = tested on: SF-268
RPMI-8226 = tested on: RPMI-8226
MCF7 = tested on: MCF7
HL-60 = tested on: HL-60
MOLT-4 = tested on: MOLT-4
NCI-H23 = tested on: NCI-H23
SK-MEL-28 = tested on: SK-MEL-28
SN12C = tested on: SN12C
SK-OV-3 = tested on: SK-OV-3
A549 = tested on: A549
OVCAR-4 = tested on: OVCAR-4
HCT-116 = tested on: HCT-116
NCI-H226 = tested on: NCI-H226

Measured: GI50

CC(=O)Nc1nc(C)c(S(=O)(=O)NC(=O)NC2NC(=O)NC2=O)s1 (stereo not given)
inactive: NCI/ADR-RES > 100 µM | Malme-3M > 100 µM | K562 > 100 µM | PC-3 > 100 µM | T47D > 100 µM | EKVX > 100 µM | A498 > 100 µM | SF-268 > 100 µM | RPMI-8226 > 100 µM | MCF7 > 100 µM | HL-60 > 100 µM | MOLT-4 > 100 µM | NCI-H23 > 100 µM | SK-MEL-28 > 100 µM | SN12C > 100 µM | SK-OV-3 > 100 µM | A549 > 100 µM | OVCAR-4 > 100 µM | HCT-116 > 100 µM

Cc1nn(C(=O)c2ccc(Cl)cc2)c2c1C(c1ccccc1[N+](=O)[O-])SC(=N)N2 (stereo not given)
inactive: NCI/ADR-RES > 10 µM | Malme-3M > 10 µM | K562 > 10 µM | PC-3 > 10 µM | T47D > 10 µM | EKVX > 10 µM | SF-268 > 10 µM | RPMI-8226 > 10 µM | MCF7 > 10 µM | HL-60 > 10 µM | MOLT-4 > 10 µM | NCI-H23 > 10 µM | NCI-H226 > 10 µM | SN12C > 10 µM | SK-OV-3 > 10 µM | A549 > 10 µM | OVCAR-4 > 10 µM | HCT-116 > 10 µM

CSc1ccc(/C=C2\N=C(c3ccccc3)N(c3nc4cc(C)c(C)cc4s3)C2=O)cc1
inactive: NCI/ADR-RES 31.3 µM | K562 43.4 µM | PC-3 22.4 µM | T47D 44.8 µM | EKVX 24.9 µM | SF-268 34.8 µM | RPMI-8226 52.1 µM | MCF7 15.3 µM | HL-60 20.9 µM | MOLT-4 61.9 µM | SK-MEL-28 49.7 µM | SN12C 27 µM | SK-OV-3 46.5 µM | A549 30.1 µM | OVCAR-4 26.5 µM | HCT-116 18.3 µM

C=CC(=C)CCC(Br)C(C)(C)Br (stereo not given)
inactive: NCI/ADR-RES > 100 µM | Malme-3M 41.2 µM | K562 40.3 µM | PC-3 > 100 µM | T47D 66.2 µM | EKVX > 100 µM | SF-268 > 100 µM | RPMI-8226 88.1 µM | MCF7 35.1 µM | HL-60 17.1 µM | MOLT-4 15.6 µM | NCI-H23 > 100 µM | NCI-H226 > 100 µM | SK-MEL-28 > 100 µM | SN12C > 100 µM | SK-OV-3 > 100 µM | A549 > 100 µM | OVCAR-4 > 100 µM | HCT-116 54.3 µM

O=CC12CCCN1CCC2
inactive: NCI/ADR-RES > 100 µM | Malme-3M > 100 µM | K562 > 100 µM | PC-3 > 100 µM | T47D > 100 µM | EKVX > 100 µM | MOLT-4 > 100 µM | NCI-H23 > 100 µM | NCI-H226 76.4 µM | SK-MEL-28 > 100 µM | SN12C > 100 µM | SK-OV-3 > 100 µM | A549 > 100 µM | OVCAR-4 > 100 µM | HCT-116 > 100 µM

COC1=CC(=O)C2=C(C1=O)[C@H]1CC[C@]3(C)[C@@H](OC(C)=O)CC[C@H]3[C@@H]1CC2
inactive: NCI/ADR-RES 32.7 µM | Malme-3M 30.3 µM | K562 44.4 µM | PC-3 39.9 µM | T47D 23.2 µM | EKVX 13.6 µM | A498 > 100 µM | SF-268 42.1 µM | RPMI-8226 31 µM | HL-60 16.4 µM | MOLT-4 20.2 µM | NCI-H23 40.3 µM | NCI-H226 75.2 µM | SK-MEL-28 > 100 µM | SN12C 95.9 µM | SK-OV-3 > 100 µM | A549 > 100 µM | OVCAR-4 16.5 µM | HCT-116 29.3 µM

N[C@H]1CCC[C@@H](O)C1O (stereo not given in full)
inactive: NCI/ADR-RES > 100 µM | K562 > 100 µM | PC-3 > 100 µM | T47D > 100 µM | EKVX > 100 µM | A498 > 100 µM | SF-268 > 100 µM | RPMI-8226 > 100 µM | MCF7 > 100 µM | HL-60 > 100 µM | NCI-H23 > 100 µM | SK-MEL-28 > 100 µM | SN12C > 100 µM | SK-OV-3 > 100 µM | A549 > 100 µM | HCT-116 > 100 µM

CCCCCCCCC/C=C1\CC(CO)(COC(=O)C2CCCCC2)OC1=O (stereo not given)
inactive: NCI/ADR-RES 17 µM | Malme-3M 15.2 µM | K562 11 µM | PC-3 17 µM | T47D 20.9 µM | EKVX 17.9 µM | A498 22.1 µM | SF-268 20.4 µM | MCF7 23.2 µM | MOLT-4 21.7 µM | NCI-H23 22.9 µM | NCI-H226 23.3 µM | SK-MEL-28 15.6 µM | SN12C 16.9 µM | SK-OV-3 25.8 µM | A549 19.4 µM | OVCAR-4 22.8 µM | HCT-116 23 µM
